Experiments:
LNCaP cells [1] = experiment: MTS reduction viability assay on LNCaP cells; assay type: cell-based, human; conditions: MTS method
Protocol: (§1) RPMI-1640 (Lonza) medium with 10% heat-inactivated FBS (fetal bovine serum, Sigma) and 100 U/ml Penicillin/Streptomycin was used to grow the cells. Cells were treated with drugs freshly dissolved in RPMI medium. Treatment concentrations were determined by widening the concentration range. After 48 h of treatment, cell viability was also quantified using the MTS reduction assay (Promega) as well as a CellTiter-Glo kit (Promega) based on ATP level measurements.
In the MTS reduction method (CellTiter 96® AQueous One Solution Cell Proliferation Assay, Promega Corp, Madison, […].), 20 microliters of MTS reagent was used per sample according to the manufacturer's protocol, and after 120 minutes of incubation, absorbance was measured at 492 nm with a microplate reader.
In the studies, we modified the protocol of Gordon et al (2014) as follows: • A volume of 20 microliters per well was used from the MTS reagent as recommended by the manufacturer (10 microliters were used by Grodon et al.). • In our case, an incubation time of 120 min was used to increase accuracy (Gordon et al incubated for 60 min). […] During validation, measurements were performed with a given number of cells per well, and absorbance values were plotted as a function of cell number. A calibration line was placed on the data points by linear regression analysis and the R^2 coefficient of determination was determined. […]

LNCaP cells [2] = experiment: CellTiter-Glo (ATP level) viability assay on LNCaP cells; assay type: cell-based, human; conditions: for viability of LNCaP cells, summary of the study: concentration-dependent manner, 48 h; for viability of LNCaP cells: 48 hours of treatment
Protocol: as §1
(§2) The CellTiter-Glo assay based on ATP level measurements was performed according to the manufacturer's protocol of pipetting 100 microliters of Celliter-Glo reagent into wells containing 100 microliters of medium, then shaking for 2 minutes and incubating for another 10 minutes. The luminescence signal was then detected with a PerkinElmer AlphaLisa instrument.
To reproduce the literature data, we also used the unpaired t-test also used by Gordon et al (2014) to compare control and treated groups. […] For some results (LNCaP chlororlin MTS method and LNCaP rasagiline and selegiline CellTiter-Glo method) Kruskal-Wallis non-parametric one-way ANOVA method was used with Dunn test, while in other cases one-way ANOVA method was used with Bonferroni post hoc test.
(§3) In our experiments, we performed three parallel experiments, and the experiments were repeated to increase the number of items. For the statistical analysis of two separate experiments the results were pooled, however, the absolute values obtained during the luminescence measurements cannot be used to combine the results. This is because the CellTiter-Glo reagent loses its activity during storage and possible thaw-freeze cycles. Thus, a CellTiter-Glo reagent from a single source can give different relative luminescence values (RLUs) at the same cell number in two different experiments performed at different times. However, in one experiment, the RLU reliably gives the cell number, and accordingly, the percentage viability value of the treated condition relative to the control RLU can be determined with certainty; values from different experimental series can be combined.
(§4) During the evaluation, we normalized to the mean of the control of the given experiment, so the mean of the control was 100% and the percentage of each individual data point relative to the mean of the control was calculated accordingly. One-way ANOVA with Bonferroni post hoc test with p<0.05 significance level was used for statistical validation of viability changes as described above.

PC3 cells = experiment: CellTiter-Glo (ATP level) viability assay on PC3 cells; assay type: cell-based, human; conditions: 48 h; for viability of PC3 cells: CellTiter-Glo; for viability of PC3 cells, summary of the study: concentration-dependent manner
Protocol: as §1, §2
To support the applicability of the CellTiter-Glo viability assay method, we validated the method on a PC3 cell line. In this procedure, the measurement was performed with a given number of living cells per well, and the relative luminescence values obtained were plotted as a function of the cell number. A calibration line was placed on the data points by linear regression analysis, and based on the R2 value, it was determined that the relative luminescence value obtained during the measurement was directly proportional to the number of living cells (FIG. 1/C).
as §3, §4

human PC3 xenograft = experiment: Tumor growth in NSG SCID mouse human PC3 xenograft model; assay type: in vivo; conditions: 10 mg/kg i.p. once daily from day 14, day 21
Description: For our experiments, we used 25 3-month-old male NOD (Non Obese Diabetic) SCID (Severe Combined ImmunoDeficiency) Gamma mice (National Institute of Oncology Animal House). Immunodeficiency in these mice (Shultz et al, 1995) is associated with decreased T and B lymphocyte and NK cell function, as well as deficiency is developed in cytokine signaling pathways, in adaptive and innate immune systems. During the experiment, the animals were housed in the animal house of the János Szentágothai Research Center of the University of Pecs, and they were provided with standard rodent food and tap water ad libitum. The animals were kept at 20-24° C., 50-60% relative humidity, in a 12-12 hour dark-light cycle. […]
RPMI-1640 (Lonza) medium with 10% heat-inactivated FBS (Sigma) and 100 U/ml Penicillin/Streptomycin was used to proliferate the PC3 cell line (Wesel, Germany), which was also used for in vitro experiments. […] Cell counts were determined after trypan blue staining with a LUNA II automated cell counter (Logos Biosystems) and 50 million cells were resuspended in 5 ml PBS. […]
On days 4, 7, 11, 14, 18, and 21 of the experiment, the length (a) and width (b) of the growing tumor were measured with a caliper, and then the tumor volume was calculated using the following formula (J B Wu et al., J Clin Invest., 124, 2891-2908): […]

[3] = test system: androgen-sensitive and castration-resistant human prostate cells; conditions: literature preclinical study; cited from earlier work
[4] = test system: PC3 prostate carcinoma cell line; experiment: CellTiter-Glo viability assay on PC3 cells, selegiline, docetaxel and combinations; assay type: cell-based, human; conditions: 48 hours
Protocol: In our studies, we used a […] PC3 prostate carcinoma cell line. The culture of the cell line and the study of the effect of the combination of docetaxel and selegiline were performed as previously described, with the changes detailed below.
Selegiline, docetaxel, and selegiline+docetaxel combination studies were performed in parallel, simultaneously, with the same reagents, on a cell population from the same cell culture. For the selegiline, docetaxel and selegiline+docetaxel combination studies, the following changes were applied from the protocol according to the examples of the application: • Treatments with selegiline alone were performed at concentrations ranging from 250 μM to 1 mM (250 μM, 500 μM, 750 μM, 1 mM), while docetaxel alone was administered at a concentration of 1 μM. For combination treatments, 1 μM docetaxel was added to the concentrations corresponding to the selegiline treatments (250 μM selegiline+1 μM docetaxel, 500 μM selegiline+1 μM docetaxel, 750 μM selegiline+1 μM docetaxel, 1 mM selegiline+1 μM docetaxel). • For docetaxel and combination treatments, a 0.01% dimethyl sulfoxide (DMSO) solution prepared with complete RPMI medium (10% FBS, 100 U/ml Penicillin/Streptomycin; solution for culturing and treating PC3 cells) was used as a control. This was used as a solvent control, corresponding to the use of DMSO to prepare a 10 mM docetaxel stock solution. Thus, the 1 μM docetaxel treatments we used also contained 0.01% DMSO. • The change in cell viability induced by selegiline, docetaxel, and combinations thereof was measured after 48 hours with the CellTiter-Glo kit as previously described. • The experiments were performed in 3 different series, and for evaluation they were combined with the previously described normalization. Briefly, during the evaluation, we normalized to the mean of the untreated control in the given experiment, so the mean of the control was 100% and the percentage of each individual data point relative to the mean of the control was calculated accordingly. Because treatments with selegiline and docetaxel alone or in combination were performed in one experiment, we normalized to the mean of the untreated control without DMSO. […] A Shapiro-Wilk and Kolmogorov-Smirnov normality test was performed on the data set, followed by a one-way ANOVA test with a Holm-Sidak's multiple comparison test.

[5] = test system: metastatic castration-resistant disease; conditions: patients; cited from earlier work

C#CCN(C)CCCOc1ccc(Cl)cc1Cl [clorgylin]
viability of LNCaP cells (LNCaP cells [1]; 100 micromolar, 48 h of treatment): significantly reduced | viability of LNCaP cells, concentration dependence (LNCaP cells [1]; 48 h): concentration-dependent manner | viability of LNCaP cells, CellTiter-Glo compared with MTS method (LNCaP cells [2]; 48 h clorgylin treatment, CellTiter-Glo): results similar to the MTS method | viability of LNCaP cells, summary of the study (LNCaP cells [2]): significantly reduced | viability of PC3 cells (PC3 cells; 1 mM): significantly reduced | viability of PC3 cells (PC3 cells; 100 micromolar): significantly reduced | viability of PC3 cells, summary of the study (PC3 cells): significantly reduced | rate of tumor growth compared to the group treated with physiological saline (human PC3 xenograft): significantly reduced | growth and proliferation of androgen-sensitive and castration-resistant human prostate cells [3]: inhibited | growth of enzalutamide-resistant cells [3]: significantly reduced

C#CCN(C)[C@H](C)Cc1ccccc1 [selegiline]
viability of LNCaP cells (LNCaP cells [2]; 1 mM, CellTiter-Glo): trend is also clearly observed | viability of LNCaP cells (LNCaP cells [2]; 10 mM, CellTiter-Glo): significant viability-reducing effect | viability of LNCaP cells, summary of the study (LNCaP cells [2]): significantly reduced | viability of PC3 cells (PC3 cells; 1 mM): significant viability-reducing effect | viability of PC3 cells (PC3 cells; 10 mM): significant viability-reducing effect | viability of PC3 cells, summary of the study (PC3 cells): significantly reduced | rate of tumor growth compared to the group treated with physiological saline (human PC3 xenograft): significantly reduced | viability of PC3 cells, concentration dependence ([4]; 250 μM to 1 mM): concentration-dependent manner | viability of PC3 cells ([4]; 750 μM, Example 3 series): significant decrease in viability | viability of PC3 cells, effect of Example 1 ([4]; 1 mM, Example 3 series): reproduced

CC(=O)O[C@@]12CO[C@@H]1C[C@H](O)[C@@]1(C)C(=O)[C@H](O)C3=C(C)[C@@H](OC(=O)[C@H](O)[C@@H](NC(=O)OC(C)(C)C)c4ccccc4)C[C@@](O)([C@@H](OC(=O)c4ccccc4)[C@H]21)C3(C)C [docetaxel]
cell viability compared to the DMSO control ([4]; 1 μM): significantly reduced cell viability | increase of overall survival, average [5]: 2-3 months

C#CCN[C@@H]1CCc2ccccc21 [rasagiline]
viability of LNCaP cells (LNCaP cells [2]; 1 mM, CellTiter-Glo): trend is also clearly observed | viability of LNCaP cells (LNCaP cells [2]; 10 mM, CellTiter-Glo): significant viability-reducing effect | viability of LNCaP cells, summary of the study (LNCaP cells [2]): significantly reduced | viability of PC3 cells (PC3 cells; 1 mM): significant viability-reducing effect | viability of PC3 cells (PC3 cells; 10 mM): significant viability-reducing effect | viability of PC3 cells, summary of the study (PC3 cells): significantly reduced

NNCCc1ccccc1 [phenelzine]
growth and proliferation of androgen-sensitive and castration-resistant human prostate cells [3]: inhibited
